# Patent US6451809B2 (dated 2002)
row,melting point [°C],SMILES
1,60 to 65,CCNCCOc1ccc(NC(=O)C2=C(O)CCn3c2nc2ccccc23)cc1.Cl
2,120 to 122,Cc1ccc(CNC(=O)C2=C3N(CCC2=O)c2ccccc2N3CCN(C)C)cc1
3,175 to 178,CCN(CC)CCOc1ccncc1NC(=O)C1=C(O)CCn2c1nc1ccccc12.Cl
4,130 to 142,Cl.O=C(Nc1ccc(OCCN2CCCC2)cc1)C1=C(O)CCn2c1nc1ccccc12
5,170 to 174,Cl.O=C(Nc1cnccc1OCCN1CCCC1)C1=C(O)CCn2c1nc1ccccc12
6,138 to 140,CN(C)CCN1C2=C(C(=O)NCc3ccccc3Cl)C(=O)CCN2c2ccccc21
7,55 to 65,Cl.O=C(Nc1cnccc1OCCOCCN1CCCC1)C1=C(O)CCn2c1nc1ccccc12
8,225 to 230,Cl.O=C(Nc1cnccc1OCCN1CCCCC1)C1=C(O)CCn2c1nc1ccccc12
9,60 to 68,Cl.O=C(Nc1cnccc1OCCCN1CCCC1)C1=C(O)CCn2c1nc1ccccc12
